How the values were obtained:
[1] = biological target: T1, G551D-CFTR (Homo sapiens, UniProt P13569, G551D); experiment: HS-YFP-based assay on G551D-CFTR FRT cells; type: cell-based
T1 construct: expressed in transfected cells
Protocol: The primary hits were confirmed by testing them at different concentrations, in order to extrapolate the dose–response relationship. First, we focused on the F508del mutant. The compounds were tested in the low micromolar range, in the presence of forskolin (10 μM), on F508del-CFTR FRT cells following rescue of the trafficking defect by low-temperature incubation, as done for the primary screening. The most interesting hits were subsequently tested for their ability to overcome the more severe gating defect of pure class III mutant using FRT cells stably expressing G551D-CFTR (Figure 3B).
A small set of selected potentiators with good efficacy and potency on F508del-CFTR FRT cells (Figure 6A) was also tested at three concentrations on G551D-CFTR FRT cells (Figure 6B).
FRT cells stably expressing mutant F508del-CFTR or G551D-CFTR and the halide-sensitive yellow fluorescent protein (HS-YFP) YFP-H148Q/I152L and CFBE41o-cells stably expressing F508del-CFTR and HS-YFP were generated as previously described.[21],[57] FRT cells were cultured using the Coon’s modification of Ham’s F12 medium, while CFBE41o-cells were cultured in the modified Eagle’s medium. Media were supplemented with 10% fetal calf serum, 2 mM L-glutamine, 100 U/mL of penicillin, and […] of streptomycin. […]
Prior assay, cells were washed with phosphate-buffered saline (PBS) containing (in mM) 137 NaCl, 2.7 KCl, 8.1 Na2HPO4, 1.5 KH2PO4, 1 CaCl2, and 0.5 MgCl2. […] Cells were then transferred to microplate readers (FluoStar Optima; BMG Labtech, Offenburg, Germany) for CFTR activity determination. The plate readers were equipped with high-quality excitation (HQ500/20X: 500 ± 10 nm) and emission (HQ535/30M: 535 ± 15 nm) filters for YFP (Chroma Technology). The assay consisted of a continuous 14 s fluorescence reading, 2 s before and 12 s after injection of 165 μL of an iodide-containing solution (PBS with Cl^– replaced by I^–; final I^– concentration 100 mM). Data were normalized to the initial background-subtracted fluorescence. […]

[2] = biological target: F508del-CFTR (Homo sapiens, UniProt P13569, DEL508-508); experiment: TEER/PD measurements on primary HBE cells from an F508del/F508del CF patient, 24 h co-incubation with corrector; type: cell-based; set-up: primary HBE cells from an F508del/F508del CF patient; endogenous in cells; host or cells: primary human bronchial epithelial cells, F508del/F508del CF patient; conditions: 39 0.5 μM with ARN23765 10 nM
F508del-CFTR, sequence (P13569 with tags, fused parts or gaps DEL508-508): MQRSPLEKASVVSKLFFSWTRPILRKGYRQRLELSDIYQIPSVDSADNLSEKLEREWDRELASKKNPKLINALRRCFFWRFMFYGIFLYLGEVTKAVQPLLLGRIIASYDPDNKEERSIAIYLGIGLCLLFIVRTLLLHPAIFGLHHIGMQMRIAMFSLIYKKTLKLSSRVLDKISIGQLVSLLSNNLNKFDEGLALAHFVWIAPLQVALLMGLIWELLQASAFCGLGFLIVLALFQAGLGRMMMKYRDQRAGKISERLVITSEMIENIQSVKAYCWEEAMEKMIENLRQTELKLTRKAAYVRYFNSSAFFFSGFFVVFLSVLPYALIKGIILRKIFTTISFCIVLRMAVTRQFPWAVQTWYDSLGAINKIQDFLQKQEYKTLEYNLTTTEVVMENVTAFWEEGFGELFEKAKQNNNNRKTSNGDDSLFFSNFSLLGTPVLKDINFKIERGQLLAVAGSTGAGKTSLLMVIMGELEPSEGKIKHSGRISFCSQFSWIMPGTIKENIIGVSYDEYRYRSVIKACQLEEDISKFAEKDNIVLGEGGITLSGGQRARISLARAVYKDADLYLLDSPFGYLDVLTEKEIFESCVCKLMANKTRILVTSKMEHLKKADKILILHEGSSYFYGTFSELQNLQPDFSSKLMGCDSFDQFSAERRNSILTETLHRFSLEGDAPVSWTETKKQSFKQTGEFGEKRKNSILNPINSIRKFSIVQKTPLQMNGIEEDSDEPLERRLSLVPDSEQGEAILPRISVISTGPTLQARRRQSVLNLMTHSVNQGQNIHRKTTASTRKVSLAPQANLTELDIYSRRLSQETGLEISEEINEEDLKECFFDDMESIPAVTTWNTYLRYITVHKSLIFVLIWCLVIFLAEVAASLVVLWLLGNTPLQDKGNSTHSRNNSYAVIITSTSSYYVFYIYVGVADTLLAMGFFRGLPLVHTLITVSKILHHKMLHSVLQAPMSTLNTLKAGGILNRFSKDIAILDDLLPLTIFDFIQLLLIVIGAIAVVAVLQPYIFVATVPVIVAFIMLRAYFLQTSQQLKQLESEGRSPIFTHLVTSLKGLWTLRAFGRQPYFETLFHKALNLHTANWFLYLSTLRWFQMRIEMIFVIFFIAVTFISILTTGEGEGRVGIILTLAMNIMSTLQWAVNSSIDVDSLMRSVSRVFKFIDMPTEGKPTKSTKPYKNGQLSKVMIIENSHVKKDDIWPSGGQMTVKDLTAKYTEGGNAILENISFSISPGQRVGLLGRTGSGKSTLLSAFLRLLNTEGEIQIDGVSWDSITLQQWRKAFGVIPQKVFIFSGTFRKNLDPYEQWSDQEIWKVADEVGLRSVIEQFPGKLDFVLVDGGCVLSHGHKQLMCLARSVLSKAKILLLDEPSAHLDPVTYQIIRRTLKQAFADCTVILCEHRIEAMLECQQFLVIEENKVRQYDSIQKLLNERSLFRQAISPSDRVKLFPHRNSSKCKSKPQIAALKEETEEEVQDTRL
Protocol: A similar combination study was conducted on primary HBE cells from an F508del/F508del CF patient. The effect of the compound was assessed with the transepithelial electrical resistance and potential difference (TEER/PD) technique.[41] Epithelia were treated for 24 h with a vehicle, a corrector ARN23765 alone (10 nM), or ARN23765 (10 nM) plus the potentiator 39 (0.5 μM). TEER and PD values were taken at resting, after the addition of apical amiloride, after maximal stimulation of F508del-CFTR activity (with forskolin plus genistein), and after blocking with PPQ-102. For each epithelium, we measured the difference in the short-circuit current, Ieq (calculated from the TEER and PD values), before and after blocking with PPQ-102 (ΔIeq). The results obtained on primary epithelia confirmed that the rescue of CFTR activity by the corrector ARN23765 was not affected by coincubation with the novel potentiator 39 (Figure 7B).
Primary bronchial epithelial cells were cultured as previously described.[58] In brief, epithelial cells were cultured in a serum-free medium (LHC9 mixed with RPMI 1640, 1:1) supplemented with hormones and supplements to support cell number amplification. […] Differentiation of cells to form a tight epithelium was monitored by measuring transepithelial electrical resistance and potential difference with an epithelial voltohmmeter (EVOM1, World Precision Instruments). […]

T1 sequence (P13569 whole entry G551D): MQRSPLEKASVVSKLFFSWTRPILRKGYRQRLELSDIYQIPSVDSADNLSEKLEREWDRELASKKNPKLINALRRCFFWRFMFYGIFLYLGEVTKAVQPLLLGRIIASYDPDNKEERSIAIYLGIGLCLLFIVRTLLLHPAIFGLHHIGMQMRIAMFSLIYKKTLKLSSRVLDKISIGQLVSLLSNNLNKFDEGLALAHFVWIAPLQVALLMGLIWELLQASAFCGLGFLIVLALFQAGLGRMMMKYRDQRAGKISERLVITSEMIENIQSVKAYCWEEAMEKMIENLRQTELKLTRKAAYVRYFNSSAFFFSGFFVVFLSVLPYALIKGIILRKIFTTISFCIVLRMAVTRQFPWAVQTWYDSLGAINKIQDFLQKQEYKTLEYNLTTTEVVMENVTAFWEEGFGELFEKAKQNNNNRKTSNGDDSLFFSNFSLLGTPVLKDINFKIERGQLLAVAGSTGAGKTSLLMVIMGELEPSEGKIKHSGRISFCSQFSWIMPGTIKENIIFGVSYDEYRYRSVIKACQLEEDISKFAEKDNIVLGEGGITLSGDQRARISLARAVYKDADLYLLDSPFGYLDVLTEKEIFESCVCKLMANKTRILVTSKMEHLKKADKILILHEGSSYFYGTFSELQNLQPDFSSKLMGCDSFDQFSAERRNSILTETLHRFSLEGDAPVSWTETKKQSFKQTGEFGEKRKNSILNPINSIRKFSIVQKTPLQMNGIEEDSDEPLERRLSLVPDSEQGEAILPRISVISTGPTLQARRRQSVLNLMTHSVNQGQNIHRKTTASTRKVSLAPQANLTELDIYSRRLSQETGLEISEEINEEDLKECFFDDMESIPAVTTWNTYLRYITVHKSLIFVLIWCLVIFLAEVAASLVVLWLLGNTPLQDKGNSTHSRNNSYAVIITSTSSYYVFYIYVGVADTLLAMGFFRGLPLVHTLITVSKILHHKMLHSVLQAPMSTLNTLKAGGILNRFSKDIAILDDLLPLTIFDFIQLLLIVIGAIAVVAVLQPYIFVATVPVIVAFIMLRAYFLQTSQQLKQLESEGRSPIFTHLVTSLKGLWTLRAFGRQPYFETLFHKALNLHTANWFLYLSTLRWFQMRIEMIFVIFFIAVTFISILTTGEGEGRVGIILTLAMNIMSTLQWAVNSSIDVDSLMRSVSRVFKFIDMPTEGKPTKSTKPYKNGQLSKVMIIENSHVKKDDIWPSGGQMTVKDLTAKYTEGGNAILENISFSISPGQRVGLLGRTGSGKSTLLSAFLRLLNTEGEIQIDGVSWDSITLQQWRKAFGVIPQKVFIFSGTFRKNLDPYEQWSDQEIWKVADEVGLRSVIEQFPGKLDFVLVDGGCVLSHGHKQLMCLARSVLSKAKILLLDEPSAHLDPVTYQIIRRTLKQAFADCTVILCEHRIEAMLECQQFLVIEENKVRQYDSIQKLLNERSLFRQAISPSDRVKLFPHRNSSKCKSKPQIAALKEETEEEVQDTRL

Cc1ccc(F)c2[nH]c3c(c12)CN(C(=O)c1cc(C(F)(F)F)[nH]n1)[C@H](C)C3 [Compound 39, (R)-(6-Fluoro-3,9-dimethyl-1,3,4,5-tetrahydro-2H-pyrido[4,3-b]indol-2-yl)-(5-(trifluoromethyl)-1H-pyrazol-3-yl)methanone]
activity compared to VX-770 on G551D-CFTR FRT cells ([1]; at 0.56 μM): decrease in activity
activity compared to VX-770 on G551D-CFTR FRT cells ([1]; at the highest concentrations (20–3.3 μM)): comparable pattern of activity
potency ranking on G551D-CFTR FRT cells ([1]; tested at three concentrations, Figure 6B): the most potent one
effect on rescue of CFTR activity by the corrector ARN23765 (ΔIeq) [2]: not affected

From article PMC8011931, “Identification, Structure–Activity Relationship, and Biological Characterization of 2,3,4,5-Tetrahydro-1H-pyrido[4,3-b]indoles as a Novel Class of CFTR Potentiators” (Journal of Medicinal Chemistry, 2020)
